Reference: patent publication US8962844B2, “1,3,4-oxadiazole and 1,3,4-thiadiazole β-lactamase inhibitors” (priority 2012, dated 2015)
Where a name gives a salt, the structure may show the parent alone.

Key:
[1] = tested on: bacterial strains that express KPC β-lactamases; experiment: Standard BLI potentiation MIC / synergy MIC (sMIC) assays run in the presence of a β-lactam, KPC expressing strains; assay type: cell-based; details: more active for at least one KPC strain and/or better spectrum of activity than Avibactam; BLI in combination with a β-lactam
Excerpt: (§1) Unless otherwise indicated, the activity of the BLI compounds can be described by the MIC value obtained from a Synergy MIC assay or a BLI potentiation assay (e.g as described herein), both of which are run in the presence of a β-lactam.
(§2) A set of β-lactamase expressing isogenic E. coli strains was constructed by cloning a β-lactamase gene into a customized derivative of pBR322 (GenBank Accession Number J01749) and transforming the engineered plasmids into E. coli. The NdeI restriction site within the plasmid backbone of pBR322 was removed to generate pBR322 ΔNdeI. The pBR322 ΔNdeI vector itself, minus the blaTEM-1 gene, was amplified using two primers: (1) pBR-Pbla 5′-cgcatatgactettectttttcaatattattg-3, SEQ ID 1, a primer with an engineered NdeI restriction site at the 3′ end of the blaTEM-1 promoter and (2) pBR-vec-1 5′-[…]-3′, SEQ ID 2, a primer with an engineered BamHI restriction site at the 3′ end of the blaTEM-1 open reading frame. The chloramphenicol resistance gene, cat, was generated by PCR amplification from pKD3 (GenBank Accession Number AY048742) using primers with an engineered NdeI restriction site at the 5′ end (Pbla-cat 5′-[…]-3′, SEQ ID 3) and an engineered BamHI restriction site at the 3′ end (Vec-1-cat 5′-[…]-3′, SEQ ID 4) of the resistance gene. The two PCR products, pBR322 ΔNdeI and cat were ligated together generating pBR-CBST (pBR322 ΔNdeI ΔTEM-1::cat Seq. ID 5) which retains both the pBR322 tetracycline resistance cassette, tetA, and the plasmid origin of replication but the blaTEM-1 gene was replaced by the cat gene.
(§3) Using this engineering strategy a number of plasmids producing β-lactamase genes from different classes (see below) were generated using synthetic genes with an engineered NdeI restriction site at the 5′ end and BamHI restriction site at the 3′ end of each gene (GenScript). Both the synthetic β-lactamase genes and cat gene were ligated into the NdeI/BamHI sites of the pBR322 ΔNdeI PCR product and transformed into electrocompetent E. coli ElectroMax DH10B (Invitrogen/Life Technologies). E. coli DH10B harboring the recombinant plasmids were selected on LB agar (supplemented with 25 μg/mL tetracycline) and single isolated colonies were then inoculated into 5 mL LB media (supplemented with 25 μg/mL tetracycline), and incubated at 37° C. with aeration (250 rpm) for 18 hrs. The cultures were frozen back at −80° C. in 20% glycerol. The DNA sequence of the cloned β-lactamase genes was confirmed. The β-lactamase gene expression in the recombinant E. coli strains was driven by the blaTEM-1 promoter in the pBR-CBST plasmid and was characterized by MIC profiling of the E. coli recombinant strains against comparator β-lactam/BLI combinations in broth microdilution assay.
(§4) The experimental protocol was performed according to Clinical and Laboratory Standards Institute (CLSI) guidelines with modifications as described below (CLSI guidelines can be derived from the CLSI document M07-A9 published in January 2012: “Methods for Dilution Antimicrobial Susceptibility Tests for Bacteria That Grow Aerobically; Approved Standard-Ninth Edition”).
(§5) To prepare for MIC testing, frozen glycerol stocks of clinical isolates (Klebsiella pneumoniae, Eschericia coli, Enterobacter spp, Citrobacter spp, or Pseudomonas aeruginosa) were used to streak for isolated colonies on rich, non-selective, tryptic soy agar containing 5% sheep's blood (TSAB). Frozen glycerol stocks of laboratory engineered, isogenic E. coli strains, which contain cloned β-lactamase expressing plasmids were used to streak for isolated colonies on rich, selective LB agar supplemented with 25 μg/mL tetracycline to maintain the plasmid. All strains were incubated at 37° C. for 18-24 hrs.
(§6) On the day of testing, primary cultures were started by scraping off 5-10 colonies from the TSAB plates containing clinical strains or the tetracycline supplemented LB plates containing engineered strains. […]

[2] = tested on: bacterial strains that express the class D cephalosporinase OXA-15; experiment: Standard BLI potentiation MIC / synergy MIC (sMIC) assays run in the presence of a β-lactam, OXA-15 expressing strains; assay type: cell-based, E. coli; details: BLI in combination with a β-lactam; comparison with Avibactam (comparator compound CCC)
Excerpt: as §1, §2, §3, §4, §5, §6

Row | Compound | activity and/or spectrum of activity against bacterial strains that express KPC β-lactamases, compared with Avibactam [1] | activity against bacterial strains that express the class D cephalosporinase OXA-15, compared with Avibactam [2]
1 | O=C1N2C[C@@H](CC[C@H]2c2nnco2)N1OS(=O)(=O)O [Compound 701, (2S,5R)-2-(1,3,4-oxadiazol-2-yl)-7-oxo-1,6-diazabicyclo[3.2.1]octan-6-yl hydrogen sulfate] | more active than Avibactam | more active than Avibactam
2 | NCc1nnc([C@@H]2CC[C@@H]3CN2C(=O)N3OS(=O)(=O)O)o1 [Compound 702, (2S,5R)-2-(5-(aminomethyl)-1,3,4-oxadiazol-2-yl)-7-oxo-1,6-diazabicyclo[3.2.1]octan-6-yl hydrogen sulfate] | more active than Avibactam | more active than Avibactam
3 | NCCc1nnc([C@@H]2CC[C@@H]3CN2C(=O)N3OS(=O)(=O)O)o1 [Compound 703, (2S,5R)-2-(5-(2-aminoethyl)-1,3,4-oxadiazol-2-yl)-7-oxo-1,6-diazabicyclo[3.2.1]octan-6-yl hydrogen sulfate] | more active than Avibactam | more active than Avibactam
4 | N=C(N)NCCc1nnc([C@@H]2CC[C@@H]3CN2C(=O)N3OS(=O)(=O)O)o1 [Compound 705, (2S,5R)-2-(5-(2-guanidinoethyl)-1,3,4-oxadiazol-2-yl)-7-oxo-1,6-diazabicyclo[3.2.1]octan-6-yl hydrogen sulfate] | more active than Avibactam | more active than Avibactam
5 | NC(=O)c1nnc([C@@H]2CC[C@@H]3CN2C(=O)N3OS(=O)(=O)O)o1 [Compound 706, (2S,5R)-2-(5-carbamoyl-1,3,4-oxadiazol-2-yl)-7-oxo-1,6-diaza-bicyclo[3.2.1]octan-6-yl hydrogen sulfate] | more active than Avibactam | more active than Avibactam
6 | O=C1N2C[C@@H](CC[C@H]2c2nnc(C3CNC3)o2)N1OS(=O)(=O)O [Compound 708, (2S,5R)-2-(5-(azetidin-3-yl)-1,3,4-oxadiazol-2-yl)-7-oxo-1,6-diazabicyclo[3.2.1]octan-6-yl hydrogen sulfate] | more active than Avibactam | more active than Avibactam
7 | N=C(N)N1CC(c2nnc([C@@H]3CC[C@@H]4CN3C(=O)N4OS(=O)(=O)O)o2)C1 [Compound 709, (2S,5R)-2-(5-(1-carbamimidoylazetidin-3-yl)-1,3,4-oxadiazol-2-yl)-7-oxo-1,6-diazabicyclo[3.2.1]octan-6-yl hydrogen sulfate] | more active than Avibactam | more active than Avibactam
8 | O=C1N2C[C@@H](CC[C@H]2c2nnc(C3CCNC3)o2)N1OS(=O)(=O)O (stereo partly drawn) [Compound 710, (2S,5R)-7-oxo-2-(5-(pyrrolidin-3-yl)-1,3,4-oxadiazol-2-yl)-1,6-diazabicyclo[3.2.1]octan-6-yl hydrogen sulfate] | more active than Avibactam | more active than Avibactam
9 | O=C1N2C[C@@H](CC[C@H]2c2nnc(C3CCNCC3)o2)N1OS(=O)(=O)O [Compound 711, (2S,5R)-7-oxo-2-(5-(piperidin-4-yl)-1,3,4-oxadiazol-2-yl)-1,6-diazabicyclo[3.2.1]octan-6-yl hydrogen sulfate] | more active than Avibactam | more active than Avibactam
10 | NCCCc1nnc([C@@H]2CC[C@@H]3CN2C(=O)N3OS(=O)(=O)O)o1 [Compound 720, (2S,5R)-2-(5-(3-aminopropyl)-1,3,4-oxadiazol-2-yl)-7-oxo-1,6-diazabicyclo[3.2.1]octan-6-yl hydrogen sulfate] | more active than Avibactam | more active than Avibactam
11 | N=C(N)NCc1nnc([C@@H]2CC[C@@H]3CN2C(=O)N3OS(=O)(=O)O)s1 [Compound 721, (2S,5R)-2-(5-(guanidinomethyl)-1,3,4-thiadiazol-2-yl)-7-oxo-1,6-diazabicyclo[3.2.1]octan-6-yl hydrogen sulfate] | more active than Avibactam | more active than Avibactam
12 | CNCCc1nnc([C@@H]2CC[C@@H]3CN2C(=O)N3OS(=O)(=O)O)o1 [Compound 722, (2S,5R)-2-(5-(2-(methylamino)ethyl)-1,3,4-oxadiazol-2-yl)-7-oxo-1,6-diazabicyclo[3.2.1]octan-6-yl hydrogen sulfate] | more active than Avibactam | more active than Avibactam
13 | N=C(N)NCC1(c2nnc([C@@H]3CC[C@@H]4CN3C(=O)N4OS(=O)(=O)O)o2)CC1 [Compound 723, (2S,5R)-2-(5-(1-(guanidinomethyl)cyclopropyl)-1,3,4-oxadiazol-2-yl)-7-oxo-1,6-diazabicyclo[3.2.1]octan-6-yl hydrogen sulfate] | more active than Avibactam | more active than Avibactam
14 | NC1(Cc2nnc([C@@H]3CC[C@@H]4CN3C(=O)N4OS(=O)(=O)O)o2)CC1 [Compound 724, (2S,5R)-2-(5-((1-aminocyclopropyl)methyl)-1,3,4-oxadiazol-2-yl)-7-oxo-1,6-diazabicyclo[3.2.1]octan-6-yl hydrogen sulfate] | more active than Avibactam | more active than Avibactam
15 | O=C1N2C[C@@H](CC[C@H]2c2nnc(CNC3CNC3)o2)N1OS(=O)(=O)O [Compound 726, (2S,5R)-2-(5-((azetidin-3-ylamino)methyl)-1,3,4-oxadiazol-2-yl)-7-oxo-1,6-diazabicyclo[3.2.1]octan-6-yl hydrogen sulfate] | more active than Avibactam | more active than Avibactam
16 | NC1CCN(CCc2nnc([C@@H]3CC[C@@H]4CN3C(=O)N4OS(=O)(=O)O)o2)CC1 [Compound 775, (2S,5R)-2-(5-(2-(4-aminopiperidin-1-yl)ethyl)-1,3,4-oxadiazol-2-yl)-7-oxo-1,6-diazabicyclo[3.2.1]octan-6-yl hydrogen sulfate] | more active than Avibactam | 
